The record followed here is paper PMC6459026 (European journal of medicinal chemistry, 2019).

Assay [1] addresses HIV-1 RT pol (Human immunodeficiency virus type 1 group M subtype B, UniProt P04585). In words: RT polymerase assay. It counts as biochemical.
Assay [2] concerns the target HIV-1 IN (INST activity) (Human immunodeficiency virus type 1 group M subtype B, UniProt P04585). Nature of the assay: biochemical.

In assay [1], `Cc1ccc(C(=O)c2cc(=O)n(O)c(=O)[nH]2)cc1` [Compound 7a, 3-Hydroxy-6-(4-methylbenzoyl)pyrimidine-2,4(1H,3H)-dione] had a concentration for half-maximal inhibition (IC50) above 10 µM.
On the same count and under the same terms, the result for `O=C(c1ccc(C(F)(F)F)cc1)c1cc(=O)n(O)c(=O)[nH]1` [Compound 7b, 3-Hydroxy-6-(4-(trifluoromethyl)benzoyl)pyrimidine-2,4(1H,3H)-dione] reads above 10 µM; that for `O=C(c1ccc(F)cc1)c1cc(=O)n(O)c(=O)[nH]1` [Compound 7c, 6-(4-Fluorobenzoyl)-3-hydroxypyrimidine-2,4(1H,3H)-dione], above 10 µM; that for `COC(=O)c1ccc(C(=O)c2cc(=O)n(O)c(=O)[nH]2)cc1` [Compound 7d, Methyl 4-(1-hydroxy-2,6-dioxo-1,2,3,6-tetrahydropyrimidine-4-carbonyl)benzoate], above 10 µM.
Same read-out and setting: the result for `Cc1cc(C)cc(C(=O)c2cc(=O)n(O)c(=O)[nH]2)c1` [Compound 7e, 6-(3,5-Dimethylbenzoyl)-3-hydroxypyrimidine-2,4(1H,3H)-dione] reads above 10 µM; that for `Cc1ccc(-c2ccc(C(=O)c3cc(=O)n(O)c(=O)[nH]3)cc2)cc1` [Compound 8a, 3-Hydroxy-6-(4’-methyl-[1,1’-biphenyl]-4-carbonyl)pyrimidine-2,4(1H,3H)-dione], above 10 µM.
As for `O=C(c1ccc(-c2ccc(C(F)(F)F)cc2)cc1)c1cc(=O)n(O)c(=O)[nH]1` [Compound 8b, 3-Hydroxy-6-(4’-(trifluoromethyl)-[1,1’-biphenyl]-4-carbonyl)pyrimidine-2,4(1H,3H)-dione], the IC50 in assay [1] was above 10 µM; in assay [2] it was above 100 µM.
As to `O=C(c1ccc(-c2ccc(F)cc2)cc1)c1cc(=O)n(O)c(=O)[nH]1` [Compound 8c, 6-(4’-Fluoro-[1,1’-biphenyl]-4-carbonyl)-3-hydroxypyrimidine-2,4(1H,3H)-dione], the IC50 in assay [1] is above 10 µM.
Same read-out and setting: as for `COC(=O)c1ccc(-c2ccc(C(=O)c3cc(=O)n(O)c(=O)[nH]3)cc2)cc1` [Compound 8d, Methyl 4’-(1-hydroxy-2,6-dioxo-1,2,3,6-tetrahydropyrimidine-4-carbonyl)-[1,1’-biphenyl]-4-carboxylate], the figure is above 10 µM; as for `Cc1cc(C)cc(-c2ccc(C(=O)c3cc(=O)n(O)c(=O)[nH]3)cc2)c1` [Compound 8e, 6-(3’,5’-Dimethyl-[1,1’-biphenyl]-4-carbonyl)-3-hydroxypyrimidine-2,4(1H,3H)-dione], above 10 µM.
In assay [1], `O=C(c1ccc(-c2ccccc2)cc1)c1cc(=O)n(O)c(=O)[nH]1` [Compound 8f, 6-([1,1’-Biphenyl]-4-carbonyl)-3-hydroxypyrimidine-2,4(1H,3H)-dione] returned an IC50 above 10 µM.
The same measure, in the same setting: the result for `O=C(c1cccc(-c2ccccc2)c1)c1cc(=O)n(O)c(=O)[nH]1` [Compound 8g, 6-([1,1’-Biphenyl]-3-carbonyl)-3-hydroxypyrimidine-2,4(1H,3H)-dione] reads above 10 µM.
The molecule `COc1ccc(-c2ccc(C(=O)c3cc(=O)n(O)c(=O)[nH]3)cc2)cc1` [Compound 8h, 3-Hydroxy-6-(4’-methoxy-[1,1’-biphenyl]-4-carbonyl)pyrimidine-2,4(1H,3H)-dione] had a half-maximal inhibitory concentration (IC50) in assay [2] above 100 µM.
As to `O=C(c1ccc(-c2ccc(Cl)c(F)c2)cc1)c1cc(=O)n(O)c(=O)[nH]1` [Compound 8l, 6-(4’-Chloro-3’-fluoro-[1,1’-biphenyl]-4-carbonyl)-3-hydroxypyrimidine-2,4(1H,3H)-dione], in assay [1], the IC50 was above 10 µM.
As to `CCOCn1c(C(=O)c2ccc(-c3ccccc3)cc2)cc(=O)n(O)c1=O` [Compound 16f, 6-([1,1’-Biphenyl]-4-carbonyl)-1-(ethoxymethyl)-3-hydroxypyrimidine-2,4(1H,3H)-dione], the IC50 in assay [1] is above 10 µM; in assay [2], above 100 µM.
For `CCOCn1c(C(=O)c2cccc(-c3ccccc3)c2)cc(=O)n(O)c1=O` [Compound 16g, 6-([1,1’-Biphenyl]-3-carbonyl)-1-(ethoxymethyl)-3-hydroxypyrimidine-2,4(1H,3H)-dione], in that order: above 10 µM and above 100 µM.
For `CCOCn1c(C(C#N)c2cc(C)cc(C)c2)cc(=O)n(O)c1=O` (centres unmarked) [Compound 17e, 2-(3,5-Dimethylphenyl)-2-(3-(ethoxymethyl)-1-hydroxy-2,6-dioxo-1,2,3,6-tetrahydropyrimidin-4-yl)acetonitrile] the same measures were above 10 µM and above 100 µM.
Take `CCOCn1c(C(C#N)c2ccc(-c3ccccc3)cc2)cc(=O)n(O)c1=O` (centres unmarked) [Compound 18f, 2-([1,1’-Biphenyl]-4-yl)-2-(3-(ethoxymethyl)-1-hydroxy-2,6-dioxo-1,2,3,6-tetrahydropyrimidin-4-yl)acetonitrile]: the IC50 in assay [1] is above 10 µM; in assay [2] it was above 100 µM.
